Measured values as given in US20160339074A1, “PHARMACEUTICAL COMPOSITION OF SELECTIVE HCV NS3/4A INHIBITORS” (MERCK SHARP & DOHME CORP., priority 2014, published 2016).
≈ marks a conversion by molar mass, not a printed value. Read-outs that look alike come from different tables or passages of the source.

Key:
log D of Compound 1 = format: physicochemical; details: pH 7, pH=7
[1] = TM/TG ratio (crystallization tendency); format: physicochemical; details: based on the most stable crystalline phase known
Aqueous solubility = format: physicochemical; details: aqueous medium (not further specified)
[2] = thermodynamic from solid

logD (log D of Compound 1): 3
TM/TG ratio [1]: 1.12
solubility (Aqueous solubility): < 50 µg/mL
solubility at 2 h ([2]; simulated fasted state intestinal fluid, fassif): 50 µg/mL (≈ 65.2 µM)
solubility at 2 h ([2]; simulated gastric fluid): < 3 µg/mL
SMILES: C=C[C@@H]1C[C@]1(NC(=O)[C@@H]1C[C@@H]2CN1C(=O)[C@H](C(C)(C)C)NC(=O)O[C@@H]1C[C@H]1CCCCCc1nc3ccc(OC)cc3nc1O2)C(=O)NS(=O)(=O)C1CC1 [Compound 1, (1aR,5S,8S,10R,22aR)-5-tert-butyl-N-{(1R,2S)-1-[(cyclopropylsulfonyl)carbamoyl]-2-ethenylcyclopropyl}-14-methoxy-3,6-dioxo-1,1a,3,4,5,6,9,10,18,19,20,21,22,22a-tetradecahydro-8H-7,10-methanocyclopropa[18,19][1,10,3,6]dioxadiazacyclononadecino[11,12-b]quinoxaline-8-carboxamide]
